Experimental data published in patent US10239843B2 (CANCER RESEARCH TECHNOLOGY LIMITED, priority 2014, dated 2019).
Read-outs that look alike come from different tables or passages of the source.

How the values were obtained:
[1] = target: Human Full Length PARG (Homo sapiens (Human), UniProt Q86W56); assay: PARG enzyme assay (TR-FRET); type: biochemical
[2] = system: PARG in HeLa cell line; assay: PARG cell assay (PAR chain immunofluorescence after MMS); type: cell-based; settings: HeLa cells
Summary of the method: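 Nuclear poly(ADP-ribose) chains in HeLa cells are read by indirect immunofluorescence with a mouse anti-PAR antibody applied overnight at 4° C after fixing and permeabilising. Cells get 1 h of compound, then 50 μg/mL MMS (final) for another hour. PAR persisting at that point reflects PARG inhibition.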

[3] = MMS treatment, read-out: PARG Cell IC50
[4] = Homo sapiens, MMS treatment, read-out: PARG Cell IC50
[5] = read-out: PARG Biochem IC50 Geomean
[6] = Homo sapiens, MMS 50 μg/mL, read-out: PARG Cell IC50 Geomean
[7] = MMS 50 μg/mL, read-out: PARG Cell IC50 Geomean

Human Full Length PARG, sequence (Q86W56 whole entry): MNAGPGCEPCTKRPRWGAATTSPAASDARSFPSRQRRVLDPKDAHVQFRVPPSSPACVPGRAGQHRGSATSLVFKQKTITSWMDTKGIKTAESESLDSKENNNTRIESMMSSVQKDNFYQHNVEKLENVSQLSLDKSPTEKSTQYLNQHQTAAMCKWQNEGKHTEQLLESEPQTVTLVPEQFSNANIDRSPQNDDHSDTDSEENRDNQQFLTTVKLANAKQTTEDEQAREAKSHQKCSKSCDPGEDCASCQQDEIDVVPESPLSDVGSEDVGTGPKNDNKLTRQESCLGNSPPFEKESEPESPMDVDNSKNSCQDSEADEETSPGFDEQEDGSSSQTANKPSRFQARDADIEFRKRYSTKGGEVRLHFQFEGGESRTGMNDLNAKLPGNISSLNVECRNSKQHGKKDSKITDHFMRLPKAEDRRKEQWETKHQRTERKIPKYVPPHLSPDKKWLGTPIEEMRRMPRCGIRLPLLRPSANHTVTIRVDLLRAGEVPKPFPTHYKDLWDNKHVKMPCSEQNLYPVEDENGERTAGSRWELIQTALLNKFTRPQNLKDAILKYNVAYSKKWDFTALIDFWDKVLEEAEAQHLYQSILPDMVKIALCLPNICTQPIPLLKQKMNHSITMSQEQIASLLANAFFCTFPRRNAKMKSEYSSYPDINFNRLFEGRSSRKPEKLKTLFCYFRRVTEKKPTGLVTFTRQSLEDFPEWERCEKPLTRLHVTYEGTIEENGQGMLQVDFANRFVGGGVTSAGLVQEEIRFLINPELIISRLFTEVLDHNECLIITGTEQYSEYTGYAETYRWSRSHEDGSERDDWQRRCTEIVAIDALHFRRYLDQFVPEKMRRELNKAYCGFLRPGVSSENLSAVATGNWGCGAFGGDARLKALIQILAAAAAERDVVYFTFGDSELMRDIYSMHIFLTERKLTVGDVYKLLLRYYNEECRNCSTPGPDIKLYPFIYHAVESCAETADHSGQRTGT

In the case of `Cn1cc(Cn2c(=O)c3cc(S(=O)(=O)NC4(CF)CC4)ccc3n(Cc3cccc(C#N)n3)c2=O)cn1` [Example 538, 1-[(6-Cyano-2-pyridyl)methyl]-N-[1-(fluoromethyl)cyclopropyl]-3-[(1-methylpyrazol-4-yl)methyl]-2,4-dioxo-quinazoline-6-sulfonamide], the IC50 ([1]; read-out: PARG Biochem IC50) is reported as 0.162 µM and the IC50 [2, 3] is reported as 0.393 µM.

Work on `Cc1cc(Cn2c(=O)n(Cc3cnc(C)s3)c(=O)c3cc(S(=O)(=O)NC4(C#N)CC4)ccc32)on1` [Example 400, N-(1-Cyanocyclopropyl)-1-[(3-methylisoxazol-5-yl)methyl]-3-[(2-methylthiazol-5-yl)methyl]-2,4-dioxo-quinazoline-6-sulfonamide] yielded an IC50 ([1]; read-out: PARG Biochem IC50) of 0.027 µM and an IC50 [2, 4] of 0.32 µM.

`COC(=O)c1cc(S(=O)(=O)NC2(C)CC2)cc2c(=O)n(Cc3cnn(C)c3)c(=O)[nH]c12` [Example 448, Methyl 6-[(1-methylcyclopropyl)sulfamoyl]-3-[(1-methylpyrazol-4-yl)methyl]-2,4-dioxo-1H-quinazoline-8-carboxylate] showed an IC50 ([1]; read-out: PARG Biochem IC50) of 0.424 µM and an IC50 [2, 3] of 0.329 µM.

For `Cc1ncc(Cn2c(=O)c3cc(S(=O)(=O)NC4(C)CC4)ccc3n(Cc3cc(C(F)(F)F)nn3C)c2=O)s1` [Example 231], the IC50 [1, 5] was 0.055 µM and the IC50 [2, 6] was 0.047 µM.

`Cc1cc(Cn2c(=O)c3cc(S(=O)(=O)NC4(C)CC4)ccc3n(CC(C)(C)C)c2=O)on1` [Example 465, 1-(2,2-Dimethylpropyl)-N-(1-methylcyclopropyl)-3-[(3-methylisoxazol-5-yl)methyl]-2,4-dioxo-quinazoline-6-sulfonamide] showed an IC50 ([1]; read-out: PARG Biochem IC50) of 0.283 µM and an IC50 [2, 4] of 0.188 µM.

`Cn1c(=O)c2cc(S(=O)(=O)NC3(C)CC3)ccc2n(Cc2ccccc2C#N)c1=O` [Example 68] gave an IC50 [1, 5] of 0.324 µM and an IC50 [2, 6] of 0.306 µM.

`Cc1noc(C)c1Cn1c(=O)c2cc(S(=O)(=O)NC3(C)CC3)ccc2n(Cc2ccc(F)cc2)c1=O` [Example 168] was tested, and the IC50 [1, 5] was 0.16 µM and the IC50 [2, 6] was 0.146 µM.

`Cc1cc(Cn2c(=O)c3cc(S(=O)(=O)NC4(C)CC4)ccc3n(CC3COC3)c2=O)on1` [Example 305] gave an IC50 [1, 5] of 0.34 µM and an IC50 [2, 7] of 0.323 µM.

With `C#CCn1c(=O)n(CC#N)c(=O)c2cc(S(=O)(=O)NC3(C)CC3)ccc21` [Example 194] the IC50 [1, 5] was 0.245 µM and the IC50 [2, 7] was 0.273 µM.

In the case of `Cc1cc(Cn2c(=O)n(C)c(=O)c3cc(S(=O)(=O)NC4(C)CC4)ccc32)n(C)n1` [Example 127], the IC50 [1, 5] is reported as 0.384 µM and the IC50 [2, 6] is reported as 0.413 µM.

Compound `CC1(NS(=O)(=O)c2ccc3[nH]c(=O)n(CCC#N)c(=O)c3c2)CC1` [Example 496, 3-(2-Cyanoethyl)-N-(1-methylcyclopropyl)-2,4-dioxo-1H-quinazoline-6-sulfonamide] has an IC50 ([1]; read-out: PARG Biochem IC50) of 2.67 µM and an IC50 [2, 3] of 5.49 µM.

Work on `CNCCCn1c(=O)n(Cc2cc(C)no2)c(=O)c2cc(S(=O)(=O)NC3(C)CC3)ccc21` [Example 250] yielded an IC50 [1, 5] of 0.323 µM and an IC50 [2, 6] of 0.328 µM.

`Cc1cc(Cn2c(=O)c3cc(S(=O)(=O)NC4(CF)CC4)ccc3n(Cc3nc(C)nn3C)c2=O)on1` [Example 554, 1-[(2,5-Dimethyl-1,2,4-triazol-3-yl)methyl]-N-[1-(fluoromethyl)cyclopropyl]-3-[(3-methylisoxazol-5-yl)methyl]-2,4-dioxo-quinazoline-6-sulfonamide] gave an IC50 ([1]; read-out: PARG Biochem IC50) of 0.499 µM and an IC50 [2, 4] of 0.604 µM.

Compound `CCN(CC)CCn1c(=O)n(Cc2cnn(C)c2)c(=O)c2cc(S(=O)(=O)NC3(CF)CC3)ccc21` [Example 611, 1-[2-(Diethylamino)ethyl]-N-[1-(fluoromethyl)cyclopropyl]-3-[(1-methylpyrazol-4-yl)methyl]-2,4-dioxo-quinazoline-6-sulfonamide] has an IC50 ([1]; read-out: PARG Biochem IC50) of 0.113 µM and an IC50 [2, 4] of 0.249 µM.

`Cc1cc(Cn2c(=O)c3cc(S(=O)(=O)NC4(C)CC4)ccc3n(Cc3cc(C)nn3C)c2=O)on1` [Example 207] showed an IC50 [1, 5] of 0.038 µM and an IC50 [2, 7] of 0.116 µM.

Work on `Cc1cc(Cn2c(=O)c3cc(S(=O)(=O)NC4(C)CC4)ccc3n(Cc3cc(C(F)(F)F)nn3C)c2=O)on1` [Example 230] yielded an IC50 [1, 5] of 0.127 µM and an IC50 [2, 7] of 0.213 µM.
